“And” between values parts separate entries of the source, which are not always exact repeats. Equal entries are not always repeated.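 Grown in 96-well plates, cells were treated for 48 hours with each compound at five concentrations. Insufficient inhibition: endpoint recorded as highest concentration tested. GI50: concentration for 50% inhibition of growth. TGI: total growth inhibition.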 Where a SMILES comes first, the peptide text is derived from it. Bridges are numbered along the chain shown (N, C = ends). [ ]: non-standard residue; d: D form. aThr = C[C@H](O)[C@H](N)C(=O)O
How the values were obtained:
Test in all cases: growth of human tumour cells (NCI), 48 h
[1] = system: CCRF-CEM leukemia
[2] = system: OVCAR-4 ovarian
[3] = system: SF-268 CNS
[4] = system: NCI-H23 lung
[5] = system: DU-145 prostate
[6] = system: ACHN renal
[7] = system: EKVX NSCLC
[8] = system: T-47D breast
[9] = system: OVCAR-3 ovarian
[10] = system: MDA-MB-435

| SMILES | TGI [1] | TGI [2] | TGI [3] | TGI [4] | TGI [5] | TGI [6] | TGI [7] | TGI [8] | TGI [9] | TGI [10] | GI50 [1] [µM] | GI50 [2] [µM] | GI50 [3] | GI50 [4] [µM] | GI50 [5] [µM] | GI50 [6] [µM] | GI50 [7] [µM] | GI50 [8] [µM] | GI50 [9] | GI50 [10] [µM] |
| --- | --- | --- | --- | --- | --- | --- | --- | --- | --- | --- | --- | --- | --- | --- | --- | --- | --- | --- | --- | --- |
| Cc1noc(NC(=O)Nc2ccccc2F)c1C#N | > 100 µM | > 100 µM | > 48.9 µM | > 100 µM | > 100 µM | > 46.7 µM | 25.1 µM | > 77.4 µM | > 100 µM | > 100 µM |  |  |  |  |  |  |  |  |  |  |
| Nc1nccc(-c2c(-c3ccc(F)cc3)nn3cc(C(F)(F)F)ccc23)n1 | > 25 µM | > 25 µM | > 25 µM | > 25 µM | > 25 µM | > 25 µM | > 25 µM | > 25 µM | > 25 µM | > 25 µM | > 25 | > 25 | > 25 µM | > 25 | > 25 | > 25 | > 25 | > 25 | > 25 µM | > 25 |
| COC12C(COC(=O)NCCO)C3=C(C(=O)C(C)=C(N)C3=O)N1CC1NC12 (stereo not drawn) | > 264 µM | 119 µM | 217 µM | 22.7 µM and 51.3 µM | 236 µM | 142 µM | > 264 µM | > 264 µM | 141 µM | > 264 µM |  | 53.2 | 32.9 µM | 10.3 |  | 13.3 |  |  | 56.2 µM |  |
| Cc1cc(Br)c(NC(=O)c2c(-c3c(Cl)cccc3Cl)noc2C)c(Br)c1 | > 100 µM | > 100 µM | > 100 µM | > 100 µM | > 100 µM | > 100 µM | > 100 µM | > 100 µM | > 100 µM | > 100 µM | > 100 | 73.4 | > 100 µM | > 100 | 90.8 | > 100 | > 100 | > 100 | > 100 µM | > 100 |
| Cc1ccc(S(=O)(=O)NCCCCC(N)C(=O)O)cc1 (stereo not drawn) | > 100 µM | > 100 µM | > 100 µM | > 100 µM | > 100 µM | > 100 µM | > 100 µM | > 100 µM | > 100 µM | > 100 µM |  |  |  |  |  |  |  |  |  |  |
| O=C(O)CN(CCN(CC(=O)O)CC(=O)O)CC(=O)O.[Mn+2] | > 100 µM | > 100 µM | > 100 µM | > 100 µM | > 100 µM | > 100 µM | > 100 µM | > 100 µM | > 100 µM | > 100 µM | > 100 | > 100 | > 100 µM | > 100 | > 100 | > 100 | > 100 | > 100 | > 100 µM | > 100 |
| CC(=O)O[C@H]1CC2C(C3CC[C@H](C(C)CCC(=O)O)[C@]31C)[C@H](OC(C)=O)C[C@@H]1CC3(CC[C@]21C)OOC1(CCC(C)CC1)OO3 (stereo partly drawn) | 5.26 µM and 4.09 µM | 12.2 µM and 5.77 µM | 22.7 µM and 5.2 µM | 15.8 µM and 5.43 µM | 18 µM and 13.5 µM | 15.8 µM and 9.72 µM | 4.9 µM and 2.9 µM | 14.1 µM and 8.75 µM | 16.4 µM and 5.44 µM | 18.7 µM and 7.76 µM |  |  | 6.18 µM and 2.11 µM |  |  |  |  |  | 4.65 µM and 2.13 µM |  |
| [O]=[V]([OH])([OH])[OH] | > 100 µM | > 100 µM | > 100 µM | > 100 µM | > 100 µM | > 100 µM | > 100 µM | > 100 µM | > 100 µM | > 100 µM | > 100 | 54.2 | > 100 µM | > 100 | > 100 | > 100 | > 100 | > 100 | > 100 µM | 79.2 |
| COc1cc(/C=C/c2cc(/C=C/c3ccc(O)c(OC)c3)n(C(=O)c3ccccc3Br)n2)ccc1O | 6.14 µM | 22.8 µM | > 100 µM | 16.9 µM | 34.8 µM |  | > 100 µM | 13.2 µM |  | 8.06 µM | 0.841 | 3.64 | 2.44 µM | 2.68 | 3.29 |  | 4.72 | 2.93 |  | 0.687 |
| CC(=O)NC1C(O[C@H]2C[C@H]3[C@@H]4CC=C5C[C@@H](O)CC[C@]5(C)[C@H]4CC[C@]3(C)[C@H]2[C@H](C)C(=O)CCC(C)C)OCC(O)C1O (stereo partly drawn) | 4.15 µM | 41 µM | 11.2 µM | 18.5 µM | > 42.5 µM | > 42.5 µM | 9.37 µM | 30.9 µM | 34 µM | 8.73 µM | 1.25 | 5.31 | 2.31 µM | 4.59 | 5.89 | 3.75 | 1.97 | 2.28 | 5.2 µM | 2.06 |
| COc1ccc(/C=C2\CCC/C(=C\c3ccc(OC)c(OC)c3)C2=O)cc1OC | > 32.5 µM | > 32.5 µM | > 32.5 µM | > 32.5 µM | 9.89 µM | > 32.5 µM | > 32.5 µM | > 32.5 µM | > 32.5 µM | > 32.5 µM | 1.49 | 3.28 | 4.28 µM | 2.91 | 1.28 | 5.04 | 14 | 10.2 | 2.17 µM | 1.1 |
| CCN(CC)c1ccc2nc3ccc(=[N+](CC)CC)cc-3oc2c1 | > 100 µM | 1.28 µM | 31.2 µM | 1.27 µM | 20.9 µM | 59.8 µM | > 40.7 µM | 1.18 µM | 0.362 µM | 1.89 µM | 0.0973 | 0.0463 | 0.184 µM | 0.097 | 0.522 | 1.56 | 0.292 | 0.105 | 0.0318 µM | 0.401 |
| CC(C)C[C@@H]1NC(=O)[C@@H]2CCCN2C(=O)[C@@H]2CCCN2C(=O)[C@H](CC(C)C)NC(=O)[C@H](CO)NC(=O)[C@H](CCCCN)NC(=O)[C@H]([C@H](C)O)NC(=O)[C@@H]2CSSC[C@@H](NC1=O)C(=O)N[C@@H](Cc1ccccc1)C(=O)N1CCC[C@H]1C(=O)N[C@@H](CC(=O)O)C(=O)NCC(=O)N[C@@H](CCCN=C(N)N)C(=O)N2 (cyclo(C[aThr]KSLPPL[dC]FPDGR); disulfide 1-9) | > 50 µM | > 50 µM | > 50 µM | > 50 µM | > 50 µM | > 50 µM | > 50 µM | > 50 µM | > 50 µM | > 50 µM | > 50 | > 50 | > 50 µM | > 50 | > 50 | > 50 | > 50 | > 50 | > 50 µM | > 50 |

Source: PubChem BioAssay (NCI)
